Source: PMC6309379 (Journal of medicinal chemistry, 2018)

Legend:
[1] = tested on: MOLM13 cells; assay: Cell cycle study, propidium iodide staining; format: cell-based, human; conditions: MOLM13, 1 μM, 24 h
[2] = target: BRD4-BD1 (Homo sapiens, UniProt O60885); assay: BROMOscan; format: binding; conditions: 1 uM, control DMSO
[3] = tested on: PLK kinases (PLK1–3); assay: KINOMEscan; format: binding; conditions: 1 uM, control DMSO

BRD4-BD1 % of control [2]	PLK kinases % of control [3]	SMILES	cell cycle arrest [1]
		C[C@@H]1C(=O)N(C)c2cnc(Nc3ccc(C(=O)NC4CCN(C)CC4)cc3OC3CCCC3)nc2N1C1CCCC1 [Compound 23, (R)-4-((8-cyclopentyl-5,7-dimethyl-6-oxo-5,6,7,8-tetrahydropteridin-2-yl)amino)-3-(cyclopentyloxy)-N-(1-methylpiperidin-4-yl)benzamide]	cell cycle arrest in the G1/G2 stage of the cell cycle
12 % of control	0.3–0.5 % of control	COc1cc(C(=O)NC2CCN(C)CC2)ccc1Nc1ncc2c(n1)N(C1CCCC1)[C@H](C)C(=O)N2C [Compound 5, (R)-4-((8-cyclopentyl-5,7-dimethyl-6-oxo-5,6,7,8-tetrahydropteridin-2-yl)amino)-3-methoxy-N-(1-methylpiperidin-4-yl)benzamide]	
		CC[C@@H]1C(=O)N(C)c2cnc(Nc3ccc(C(=O)NC4CCN(C)CC4)cc3OC)nc2N1C1CCCC1 [BI-2536, reference compound]	G1/G2 arrest
